{"source": "paper PMC12263422", "about": "“Cryo-EM structure of the human THIK-1 K2P K^+ channel reveals a lower Y gate regulated by lipids and anesthetics” (Nature Structural & Molecular Biology, 2025)", "key": {"THIK-1 Y273A/I139A": {"biological_target": "T1, THIK-1 Y273A/I139A (Homo sapiens, UniProt Q9HB14, I139A/Y273A)", "T1 construct": "expressed in transfected cells; host or cells: Xenopus oocytes (mRNA injection)", "T1 sequence (Q9HB14 1-408 I139A/Y273A)": "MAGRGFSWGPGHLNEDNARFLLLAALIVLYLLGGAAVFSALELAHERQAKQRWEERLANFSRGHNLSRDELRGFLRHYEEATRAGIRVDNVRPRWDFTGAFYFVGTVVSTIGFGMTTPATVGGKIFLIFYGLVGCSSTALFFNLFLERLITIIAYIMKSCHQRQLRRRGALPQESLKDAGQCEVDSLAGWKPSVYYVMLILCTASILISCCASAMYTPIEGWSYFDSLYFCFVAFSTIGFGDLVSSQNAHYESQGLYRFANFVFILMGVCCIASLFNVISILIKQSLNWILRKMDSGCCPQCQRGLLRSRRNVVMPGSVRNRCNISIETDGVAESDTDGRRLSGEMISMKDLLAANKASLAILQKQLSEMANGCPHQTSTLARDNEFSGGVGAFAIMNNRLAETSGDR", "test": "Inside-out excised patch recordings, oocytes, THIK-1 Y273A/I139A double mutant", "assay_type": "cell-based", "details": "for τ of 1 mM TPenA block / τ of 1 mM TPenA release: I139A/Y273A; for Normalized currents: THIK-1 Y273A/I139A", "excerpt": "(§1) Human K2P13.1 THIK-1 (GenBank accession number: NM_022054) and human K2P12.1 THIK-2 (NM_022055.1) were used in this study. For functional expression studies, the respective K^+ channel subtype coding sequences were subcloned into the oocyte expression vector pSGEM or the dual-purpose expression vector pFAW[41] and verified by sequencing. All mutant channels were obtained by site-directed mutagenesis and verified by sequencing. To increase surface expression and macroscopic currents, measurements of THIK-2 channels used a mutated ER retention motif, (R11A R12A R14A R15A R16A; THIK-2*)[20]. Vector DNA was linearized with NheI or MluI, and mRNA was synthesized in vitro using the SP6 or T7 AmpliCap Max High Yield Message Maker Kit (Cellscript, USA) or HiScribe T7 ARCA mRNA Kit (New England Biolabs).\n(§2) Two-electrode voltage–clamp (TEVC) studies were performed in Xenopus oocytes. All animal use conformed to the Guide for the Care and Use of Laboratory Animals (NIH Publication 85–23), and all experiments using Xenopus toads were approved by the local ethics panels. Oocytes were stored at 17 °C in ND96 recording solution composed of (in mM): 96 NaCl, 2 KCl, 1.8 CaCl2, 1 MgCl2, 5 HEPES (pH 7.5 adjusted with NaOH and HCl), supplemented with Na-pyruvate (275 mg L^–1), theophylline (90 mg L^–1) and gentamicin (50 mg L^–1). Oocytes were injected with 1 ng mRNA for WT or mutant channels, and were incubated for 24–48 h at 17 °C. Two-electrode voltage clamp recordings were then performed as previously described[42],[43]. For macroscopic patch–clamp measurements, oocytes were obtained as described above incubated at 17 °C in a solution containing (mM): 54 NaCl, 30 KCl, 2.4 NaHCO3, 0.82 MgSO4 ×7 H2O, 0.41 CaCl2, 0.33 Ca(NO3)2 ×4 H2O and 7.5 TRIS (pH 7.4 adjusted with NaOH and HCl) for 1–4 days before use. Excised patch recordings in inside-out configuration conditions were performed at room temperature. Patch pipettes were made from thick-walled borosilicate glass GB 200TF-8P (Science Products), had resistances of 0.2–0.5 MΩ (tip diameter, 10–25 µm) and filled with a pipette solution (in mM): 120 KCl, 10 HEPES and 3.6 CaCl2 (pH 7.4 adjusted with KOH and HCl). Intracellular bath solutions and compounds were applied to the cytoplasmic side of excised patches for the various K^+ channels through a gravity flow multi-barrel pipette system. The intracellular solution had the following composition (in mM): 120 KCl, 10 HEPES, 2 EGTA and 1 pyrophosphate (pH adjusted with KOH and HCl). Currents were recorded with an EPC10 amplifier (HEKA Electronics) and sampled at 10 kHz or higher, with filtering set to 3 kHz (–3 dB) or higher, as appropriate for sampling rate. For measurements of GPCR activation, whole-cell currents were recorded for THIK-1 in transiently transfected HEK-293 cells. Cells were stimulated by a ramp protocol between −100 and +60 mV (holding potential, −80 mV). The pipette solution was composed of (in mM): 140 KCl, 2 MgCl2, 1 CaCl2, 2.5 EGTA and 10 HEPES (pH 7.3 adjusted with KOH and HCl). The extracellular bath solution had the following composition (in mM): 135 NaCl, 5 KCl, 2 MgCl2, 2 CaCl2, 10 glucose and 10 HEPES pH (pH 7.3 adjusted with NaOH and HCl). Oxotremorine M (Oxo-M) was added to extracellular bath solution to obtain the final concentration. Single-channel currents were recorded with an Axopatch 200B amplifier through a Digidata 1440A digitizer (Molecular Devices). Data were filtered at 2 kHz and recorded at a 200-kHz sampling rate with the program Clampex (Molecular Devices). Pipette solution and bath solution for cell-attached recordings contained (in mM): 140 KCl, 2 MgCl2, 1 CaCl2 and 10 HEPES (pH 7.4 adjusted with KOH and HCl). For inside-out recordings, the bath solution contained (in mM): 140 KCl, 2 MgCl2, 1 CaCl2 and 10 HEPES (pH 7.2 adjusted with KOH and HCl). All experiments were conducted at room temperature. […]"}, "THIK-1 G331x": {"biological_target": "T2, THIK-1 G331x (Homo sapiens, UniProt Q9HB14)", "T2 construct": "expressed in transfected cells; host or cells: Xenopus oocytes (mRNA injection)", "T2 sequence (Q9HB14 1-330 limits assumed)": "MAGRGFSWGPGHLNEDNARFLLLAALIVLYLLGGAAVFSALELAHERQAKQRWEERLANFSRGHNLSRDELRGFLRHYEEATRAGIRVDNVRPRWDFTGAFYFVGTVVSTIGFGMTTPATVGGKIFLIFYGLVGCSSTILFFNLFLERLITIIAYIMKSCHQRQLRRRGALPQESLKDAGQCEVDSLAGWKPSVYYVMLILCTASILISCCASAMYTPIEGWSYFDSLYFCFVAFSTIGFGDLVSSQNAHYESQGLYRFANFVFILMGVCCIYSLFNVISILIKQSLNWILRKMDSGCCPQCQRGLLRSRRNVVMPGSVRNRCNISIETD", "test": "Inside-out excised patch recordings, oocytes, THIK-1 truncated at CASP8 cleavage site (G331x)", "assay_type": "cell-based", "excerpt": "as §1, §2"}}, "note": "Where “and” joins values, the source holds several entries; their conditions need not be identical. Identical values can stand only once."}
{"smiles": "CCCCC[N+](CCCCC)(CCCCC)CCCCC", "note": "[TPenA, tetrapentylammonium]", "values": [{"measurement": "τ of 1 mM TPenA block", "setting": "THIK-1 Y273A/I139A; individual recordings", "value": "0.121 s and 0.062 s and 0.131 s and 0.164 s and 0.120 s and 0.094 s and 0.191 s and 0.111 s and 0.116 s and 0.183 s and 0.093 s and 0.084 s and 0.142 s and 0.070 s and 0.095 s and 0.042 s"}, {"measurement": "τ of 1 mM TPenA release", "setting": "THIK-1 Y273A/I139A; individual recordings", "value": "0.960 s and 0.559 s and 1.130 s and 0.565 s and 0.799 s and 0.283 s and 0.914 s and 0.634 s and 0.842 s and 0.928 s and 0.662 s and 0.571 s and 0.449 s and 0.371 s and 1.055 s"}, {"measurement": "τ of 1 mM TPenA block", "setting": "THIK-1 Y273A/I139A; mean", "value": 0.11, "unit": "s"}, {"measurement": "τ of 1 mM TPenA release", "setting": "THIK-1 Y273A/I139A; mean", "value": 0.71, "unit": "s"}, {"measurement": "Normalized currents", "setting": "THIK-1 Y273A/I139A; TPenA 0.1 µM", "value": 1.00}, {"measurement": "Normalized currents", "setting": "THIK-1 Y273A/I139A; TPenA 1 µM", "value": 0.95}, {"measurement": "Normalized currents", "setting": "THIK-1 Y273A/I139A; TPenA 4 µM", "value": 0.90}, {"measurement": "Normalized currents", "setting": "THIK-1 Y273A/I139A; TPenA 15.6 µM", "value": 0.68}, {"measurement": "Normalized currents", "setting": "THIK-1 Y273A/I139A; TPenA 62.5 µM", "value": 0.47}, {"measurement": "Normalized currents", "setting": "THIK-1 Y273A/I139A; TPenA 250 µM", "value": 0.22}, {"measurement": "Normalized currents", "setting": "THIK-1 Y273A/I139A; TPenA 1000 µM", "value": 0.08}, {"measurement": "Normalized currents", "setting": "THIK-1 Y273A/I139A; TPenA 4000 µM", "value": 0.03}, {"measurement": "Normalized currents", "setting": "THIK-1 G331x; 0.1 µM TPenA", "value": 1.00}, {"measurement": "Normalized currents", "setting": "THIK-1 G331x; 1 µM TPenA", "value": 1.00}, {"measurement": "Normalized currents", "setting": "THIK-1 G331x; 10 µM TPenA", "value": 0.89}, {"measurement": "Normalized currents", "setting": "THIK-1 G331x; 100 µM TPenA", "value": 0.40}, {"measurement": "Normalized currents", "setting": "THIK-1 G331x; 1000 µM TPenA", "value": 0.09}, {"measurement": "Normalized currents", "setting": "THIK-1 G331x; 2000 µM TPenA", "value": 0.05}]}
